Laboratory results from US10336707B2, “Heterocyclic derivatives modulating activity of certain protein kinases” (EUDENDRON S.R.L., priority 2014, dated 2019).
Read-outs that look alike come from different tables or passages of the source.

Columns and labels:
RET wild-type = molecular target: T1, RET wild-type (Homo sapiens, UniProt P07949); experiment: Radiometric protein kinase assay (33PanQuinase Activity Assay), RET wild-type; format: biochemical; details: ATP 1.0 μM
T1 construct: either as full-length or enzymatically active fragments; purchased ProQinase GmbH (Freiburg, Germany)
T1 sequence (P07949 29-1114): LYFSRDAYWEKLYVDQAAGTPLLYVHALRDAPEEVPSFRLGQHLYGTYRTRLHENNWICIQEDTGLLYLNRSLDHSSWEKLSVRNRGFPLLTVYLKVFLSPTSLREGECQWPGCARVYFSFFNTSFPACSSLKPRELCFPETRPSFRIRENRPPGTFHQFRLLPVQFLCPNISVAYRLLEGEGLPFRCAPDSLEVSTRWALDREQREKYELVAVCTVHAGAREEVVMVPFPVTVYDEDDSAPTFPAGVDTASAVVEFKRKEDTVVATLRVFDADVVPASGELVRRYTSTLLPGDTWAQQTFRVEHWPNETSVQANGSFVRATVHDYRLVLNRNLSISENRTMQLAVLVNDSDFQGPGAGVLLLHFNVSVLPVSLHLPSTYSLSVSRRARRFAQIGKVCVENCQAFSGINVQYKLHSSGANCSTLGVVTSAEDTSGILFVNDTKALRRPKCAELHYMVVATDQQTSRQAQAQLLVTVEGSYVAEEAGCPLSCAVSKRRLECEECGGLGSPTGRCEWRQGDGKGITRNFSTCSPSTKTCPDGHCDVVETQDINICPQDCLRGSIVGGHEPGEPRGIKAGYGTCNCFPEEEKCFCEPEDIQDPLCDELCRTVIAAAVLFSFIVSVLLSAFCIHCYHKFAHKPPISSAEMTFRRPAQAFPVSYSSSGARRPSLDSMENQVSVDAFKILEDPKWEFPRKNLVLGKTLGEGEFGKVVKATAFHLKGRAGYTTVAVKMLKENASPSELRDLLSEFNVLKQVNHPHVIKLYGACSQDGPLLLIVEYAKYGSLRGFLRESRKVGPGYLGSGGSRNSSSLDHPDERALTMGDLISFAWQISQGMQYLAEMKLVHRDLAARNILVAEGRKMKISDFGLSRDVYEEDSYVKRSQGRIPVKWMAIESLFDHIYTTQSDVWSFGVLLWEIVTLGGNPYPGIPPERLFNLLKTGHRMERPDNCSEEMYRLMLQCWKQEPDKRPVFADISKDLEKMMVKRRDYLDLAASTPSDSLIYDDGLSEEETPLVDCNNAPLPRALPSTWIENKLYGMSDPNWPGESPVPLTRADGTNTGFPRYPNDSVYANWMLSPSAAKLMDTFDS
Method: (§1) A proprietary radiometric protein kinase assay (33PanQuinase® Activity Assay) developed by ProQuinase GmbH (Freiburg, Germany) was used for measuring the kinase activity of selected protein kinases. All assays were performed in FlashPlates™ wells 96 Perkin Elmer (Boston, Mass., USA) in a reaction volume of 50 μl. The reaction mixture was obtained in 4 steps in the following order: • 1. 10 μl of a solution of non-radioactive ATP in water; • 2. 25 μl of assay buffer/[γ-^33P]-ATP mixture • 3. 5 μl of test sample in 10% DMSO • 4. 10 μl of enzyme/substrate mixture
(§2) All protein kinases provided by ProQinase were expressed in Sf9 insect cells or in E. coli as recombinant GST-fusion proteins or His-tagged proteins, either as full-length or enzymatically active fragments. […] Kinases from external vendors (CAR=Carna Biosciences Inc.; INV=Life Technologies (Invitrogen Corporation); MIL=Merck-Millipore (Millipore Corporation), were expressed, purified and quality-controlled by virtue of the vendors readings.
(§3) A stock solution of compound of formula (I) was diluted to 5×10-04M/100% DMSO. […] Incorporation of 33Pi (counting of “cpm”) was determined with a microplate scintillation counter (Microbeta, Wallac). […]
(§4) Based on each 10 corresponding residual activities, IC50 values were calculated using Prism 5.04 for Windows (Graphpad, San Diego, Calif.). […]

BaF3 NPM-ALK L1152R = molecular target: T2, BaF3 NPM-ALK L1152R (Homo sapiens, UniProt Q9UM73, L1152R, cells depend on it); experiment: Tritiated thymidine uptake cell proliferation assay, BaF3 NPM-ALK L1152R; format: cell-based, murine; details: cell line BaF3 NPM-ALK L1152R; read-out: IC50 of cellular proliferation, BaF3 NPM-ALK L1152R
T2 construct: fused on or other part: P06748 (Nucleophosmin)
T2 sequence (Q9UM73 whole entry L1152R, the tested form may be a part): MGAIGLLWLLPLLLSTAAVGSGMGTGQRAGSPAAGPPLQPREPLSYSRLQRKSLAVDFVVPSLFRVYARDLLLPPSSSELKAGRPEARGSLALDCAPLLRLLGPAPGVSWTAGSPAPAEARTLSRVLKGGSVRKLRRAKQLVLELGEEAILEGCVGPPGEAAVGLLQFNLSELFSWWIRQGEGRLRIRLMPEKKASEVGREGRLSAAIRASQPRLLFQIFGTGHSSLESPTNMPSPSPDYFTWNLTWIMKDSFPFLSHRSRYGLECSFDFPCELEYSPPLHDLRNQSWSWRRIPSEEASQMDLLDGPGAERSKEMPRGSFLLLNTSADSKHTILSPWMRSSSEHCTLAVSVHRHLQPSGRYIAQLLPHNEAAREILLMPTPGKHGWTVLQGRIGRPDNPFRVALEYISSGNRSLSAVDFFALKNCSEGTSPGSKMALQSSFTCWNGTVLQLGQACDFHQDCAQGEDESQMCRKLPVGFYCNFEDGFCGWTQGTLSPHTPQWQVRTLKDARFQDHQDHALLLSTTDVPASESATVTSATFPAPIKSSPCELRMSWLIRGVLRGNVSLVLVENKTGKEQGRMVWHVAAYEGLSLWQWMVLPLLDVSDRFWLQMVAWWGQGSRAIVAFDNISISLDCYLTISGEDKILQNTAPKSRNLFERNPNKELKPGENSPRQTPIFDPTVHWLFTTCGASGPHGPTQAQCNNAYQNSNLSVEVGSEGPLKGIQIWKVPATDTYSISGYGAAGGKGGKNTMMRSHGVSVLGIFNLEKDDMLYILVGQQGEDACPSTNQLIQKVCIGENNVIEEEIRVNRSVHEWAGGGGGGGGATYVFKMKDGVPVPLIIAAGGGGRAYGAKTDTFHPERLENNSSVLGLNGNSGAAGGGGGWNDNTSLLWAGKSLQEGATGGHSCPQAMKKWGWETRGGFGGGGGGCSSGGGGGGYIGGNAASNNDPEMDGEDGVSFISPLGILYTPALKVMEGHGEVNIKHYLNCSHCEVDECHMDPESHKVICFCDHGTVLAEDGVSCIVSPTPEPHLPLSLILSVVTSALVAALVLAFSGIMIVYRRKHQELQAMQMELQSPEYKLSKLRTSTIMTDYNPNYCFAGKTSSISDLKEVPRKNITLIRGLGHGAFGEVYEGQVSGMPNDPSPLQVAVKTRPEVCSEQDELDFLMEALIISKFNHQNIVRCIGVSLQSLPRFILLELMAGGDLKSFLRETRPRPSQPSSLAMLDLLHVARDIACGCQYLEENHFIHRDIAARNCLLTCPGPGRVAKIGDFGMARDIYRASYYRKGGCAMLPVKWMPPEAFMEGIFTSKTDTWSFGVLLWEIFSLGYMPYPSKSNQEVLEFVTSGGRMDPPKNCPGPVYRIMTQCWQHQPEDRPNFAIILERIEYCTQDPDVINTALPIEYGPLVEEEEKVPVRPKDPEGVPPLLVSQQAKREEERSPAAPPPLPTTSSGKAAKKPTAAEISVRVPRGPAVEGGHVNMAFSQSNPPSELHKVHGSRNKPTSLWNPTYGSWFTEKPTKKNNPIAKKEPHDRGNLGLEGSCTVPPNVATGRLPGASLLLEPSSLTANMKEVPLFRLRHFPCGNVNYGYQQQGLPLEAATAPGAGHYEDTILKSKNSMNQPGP
Method: (§5) Method: Tritiated Thymidine Uptake Cell Proliferation Assay
(§6) The following procedure was used with parent untransformed BaF3 cells, BaF3 cells transformed with the oncogenic fusion protein NPM/ALK, NPM/ALK positive SUDHL-1 cells, NPM/ALK positive SUPM2, ALK-negative HL60 cells, NPM/ALK positive KARPAS-299 cells. The parent untransformed BaF3 cells or Alk-negative HL60 cells are used as controls. Cells were seeded in U-bottomed 96-well plates at 10000 cells/well in a volume of 100 μl in supplemented medium. In the case of the parent untransformed BaF3 cells, the medium was supplemented with IL-3. Serial dilutions of inhibitors were added to the appropriate wells and volumes adjusted to 200 μl. Controls were treated with the equivalent volume of vehicle, DMSO, alone. Plates were incubated at 37° C. for 72 h. 3[H]-thymidine (1 μCi/well) was added for the last 16 h of incubation. Cells were harvested on to paper filters and 3[H]-thymidine incorporation was measured using a scintillation counter (1430 MicroBeta, Wallac, Turku, Finland). The 50% inhibitory concentration (IC50) was defined as the concentration of inhibitor, expressed in nanomolar units, that gave a 50% decrease in 3[H]-thymidine uptake compared with controls.
(§7) In Table 4 are reported the IC50 of cellular proliferation assays of example 3 versus ALK positive, mutated and negative cell lines.

[1] = molecular target: T3, BaF3 cell line transfected with the oncogenic fusion protein NPM-ALK and expressing the mutation L1196M (Homo sapiens, UniProt Q9UM73, L1196M, cells depend on it); experiment: Tritiated thymidine uptake cell proliferation assay, BaF3 NPM-ALK L1196M; format: cell-based, murine
T3 construct: fused on or other part: P06748 (Nucleophosmin)
T3 sequence (Q9UM73 whole entry L1196M, the tested form may be a part): as the sequence (Q9UM73 whole entry L1152R, the tested form may be a part) above, with R1152L, L1196M counted along it
Method: as §5, §6
In Table 2 are listed results for selected examples of compounds of the invention, reported as percentage of inhibition of cell proliferation at 200 nM, obtained from cellular assays in BaF3 cell line transfected with the oncogenic fusion protein NPM-ALK and expressing the mutation L1196M.
In Table 3 are listed averaged IC50 values of cell proliferation inhibition for selected examples of compounds of the present invention, obtained from cellular assays in BaF3 cell line transfected with the oncogenic fusion protein NPM-ALK and expressing the mutation L1196M. The letter “A” designates an IC50 value between 1 nM and 50 nM, the letter “B” designates an IC50 value between 50 nM and 100 nM, the letter “C” designates an IC50 value between 100 and 500 nM.

FYN = molecular target: T4, FYN (Homo sapiens, UniProt P06241); experiment: Radiometric protein kinase assay (33PanQuinase Activity Assay), FYN; format: biochemical; details: ATP 0.3 μM
T4 construct: either as full-length or enzymatically active fragments; purchased ProQinase GmbH (Freiburg, Germany)
T4 sequence (P06241 whole entry, the tested form may be a part): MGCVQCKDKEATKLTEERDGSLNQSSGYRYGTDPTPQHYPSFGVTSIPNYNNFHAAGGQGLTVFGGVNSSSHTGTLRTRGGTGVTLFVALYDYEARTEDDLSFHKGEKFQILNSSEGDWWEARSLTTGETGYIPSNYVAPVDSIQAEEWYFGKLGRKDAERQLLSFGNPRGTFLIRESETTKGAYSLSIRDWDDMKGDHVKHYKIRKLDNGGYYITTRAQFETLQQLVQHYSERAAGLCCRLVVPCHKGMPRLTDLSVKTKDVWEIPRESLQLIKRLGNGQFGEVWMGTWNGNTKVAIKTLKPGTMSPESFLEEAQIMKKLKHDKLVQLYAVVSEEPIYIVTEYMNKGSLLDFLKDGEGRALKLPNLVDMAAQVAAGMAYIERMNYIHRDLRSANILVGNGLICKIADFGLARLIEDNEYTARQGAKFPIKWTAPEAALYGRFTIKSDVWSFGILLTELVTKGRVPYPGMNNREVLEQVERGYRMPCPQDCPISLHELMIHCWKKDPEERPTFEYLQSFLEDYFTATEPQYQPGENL
Method: as §1, §2, §3, §4

RET M918T = molecular target: T5, RET M918T (Homo sapiens, UniProt P07949, M918T); experiment: Radiometric protein kinase assay (33PanQuinase Activity Assay), RET M918T; format: biochemical; details: ATP 0.3 μM
T5 construct: either as full-length or enzymatically active fragments; purchased ProQinase GmbH (Freiburg, Germany)
T5 sequence (P07949 29-1114 M918T): as the sequence (P07949 29-1114) above, with M890T counted along it
Method: as §1, §2, §3, §4

BaF3 NPM-ALK WT = molecular target: T6, BaF3 NPM-ALK WT (Homo sapiens, UniProt Q9UM73); experiment: Tritiated thymidine uptake cell proliferation assay, BaF3 NPM-ALK WT; format: cell-based, murine; details: cell line BaF3 NPM-ALK WT; read-out: IC50 of cellular proliferation, BaF3 NPM-ALK WT
T6 construct: fused on or other part: P06748 (Nucleophosmin)
T6 sequence (Q9UM73 whole entry, change not shown, the tested form may be a part): as the sequence (Q9UM73 whole entry L1152R, the tested form may be a part) above, with R1152L counted along it
Method: as §5, §6, §7

CN1CCN(c2ccc(C(=O)Nc3n[nH]c4cc(-c5ccc(O)cc5)c(Cc5cc(F)cc(F)c5)cc34)c(NC3CCOCC3)c2)CC1 [Example 3, N-[5-[(3,5-difluorophenyl)methyl]-6-(4-hydroxyphenyl)-1H-indazol-3-yl]-4-(4-methylpiperazin-1-yl)-2-(tetrahydropyran-4-ylamino)benzamide]
IC50 (RET wild-type): 120 nM | GI50 (BaF3 NPM-ALK L1152R): 18 nM | GI50 ([1]; averaged IC50 values of cell proliferation inhibition, class letters, read-out: IC50 BaF3 NPM-ALK L1196M cells): 1 to 50 nM | GI50 ([1]; cell line BaF3 NPM-ALK L1196M, read-out: IC50 of cellular proliferation, BaF3 NPM-ALK L1196M): 6 nM | % Inhibition BaF3 NPM-ALK L1196M cells ([1]; percentage of inhibition of cell proliferation at 200 nM): 83% | IC50 (FYN): 34 nM | IC50 (RET M918T): 120 nM | GI50 (BaF3 NPM-ALK WT): 18 nM
